Data published in patent US20260174739A1 (priority 2022, published 2026).

Test: Human liver microsome assay (metabolic stability)
Assay type: in vitro ADME
Conditions: pH 7.4; human liver microsomes 0.2 mg/mL, 1 μM test drug, NADPH, 37° C.; read-out: Half-life (t1/2, min)
In short: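 Human liver microsomes 0.2 mg/mL with 1 μM compound, 3.0 mM MgCl2 and 2.0 mM NADPH in 0.1 M phosphate pH 7.4, 37 °C; sampled at 0–60 min. LC-MS/MS peak-area ratio to internal standard; T1/2 and CLint from slope of ln residual versus time.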

## CCNC1(c2ccccc2)CCc2nc(N)sc2C1 (racemic) [rac-A5, N^6-ethyl-6-phenyl-4,5,6,7-tetrahydrobenzothiazole-2,6-diamine]
  half-life at 1 μM: > 120 min
